Laboratory results from PubChem BioAssay (NCI).
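Five compound concentrations were applied to cells in 96-well plates for 48 hours; endpoints were derived by simple linear interpolation of the resulting dose-response curve. GI50: concentration for 50% inhibition of growth. The concentration for full growth arrest is given as TGI.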

What was measured:
Test in all cases: NCI-60 cell line screen, 48 h
786-0 renal = test system: 786-0 renal
A498 renal = test system: A498 renal
A549 NSCLC = test system: A549 NSCLC
ACHN renal = test system: ACHN renal
BT-549 breast = test system: BT-549 breast
CAKI-1 renal = test system: CAKI-1 renal
CCRF-CEM leukemia = test system: CCRF-CEM leukemia
COLO 205 colon = test system: COLO 205 colon
DU-145 prostate = test system: DU-145 prostate
EKVX NSCLC = test system: EKVX NSCLC
HCC-2998 colon = test system: HCC-2998 colon
HCT-116 colon = test system: HCT-116 colon
HCT-15 colon = test system: HCT-15 colon
HL-60(TB) leukemia = test system: HL-60(TB) leukemia
HOP-62 NSCLC = test system: HOP-62 NSCLC
HOP-92 NSCLC = test system: HOP-92 NSCLC
HS 578T breast = test system: HS 578T breast
HT29 colon = test system: HT29 colon
IGROV1 ovarian = test system: IGROV1 ovarian
K-562 leukemia = test system: K-562 leukemia
KM12 colon = test system: KM12 colon
LOX IMVI melanoma = test system: LOX IMVI melanoma
M14 melanoma = test system: M14 melanoma
MALME-3M melanoma = test system: MALME-3M melanoma
MCF7 breast = test system: MCF7 breast
MDA-MB-231 breast = test system: MDA-MB-231 breast
MDA-MB-435 = test system: MDA-MB-435
MOLT-4 leukemia = test system: MOLT-4 leukemia
NCI-H226 lung = test system: NCI-H226 lung
NCI-H23 lung = test system: NCI-H23 lung
NCI-H460 lung = test system: NCI-H460 lung
NCI-H522 lung = test system: NCI-H522 lung
NCI/ADR-RES ovarian = test system: NCI/ADR-RES ovarian
OVCAR-3 ovarian = test system: OVCAR-3 ovarian
OVCAR-4 ovarian = test system: OVCAR-4 ovarian
OVCAR-5 ovarian = test system: OVCAR-5 ovarian
OVCAR-8 ovarian = test system: OVCAR-8 ovarian
PC-3 prostate = test system: PC-3 prostate
RPMI-8226 leukemia = test system: RPMI-8226 leukemia
RXF 393 renal = test system: RXF 393 renal
SF-268 CNS = test system: SF-268 CNS
SF-295 CNS = test system: SF-295 CNS
SF-539 CNS = test system: SF-539 CNS
SK-MEL-2 melanoma = test system: SK-MEL-2 melanoma
SK-MEL-28 melanoma = test system: SK-MEL-28 melanoma
SK-MEL-5 melanoma = test system: SK-MEL-5 melanoma
SK-OV-3 ovarian = test system: SK-OV-3 ovarian
SN12C renal = test system: SN12C renal
SNB-19 CNS = test system: SNB-19 CNS
SNB-75 CNS = test system: SNB-75 CNS
SR leukemia = test system: SR leukemia
SW-620 colon = test system: SW-620 colon
T-47D breast = test system: T-47D breast
TK-10 renal = test system: TK-10 renal
U251 CNS = test system: U251 CNS
UACC-257 melanoma = test system: UACC-257 melanoma
UACC-62 melanoma = test system: UACC-62 melanoma
UO-31 renal = test system: UO-31 renal

COc1ccc(/C=C/C(=O)c2cc3c(N)c(C(=O)Nc4cccc(Cl)c4C)sc3nc2C)cc1
GI50 (786-0 renal): 411 nM | TGI (786-0 renal): > 13600 nM | GI50 (A498 renal): 174 nM | TGI (A498 renal): 781 nM | GI50 (A549 NSCLC): 261 nM | TGI (A549 NSCLC): > 50000 nM | GI50 (ACHN renal): 330 nM | TGI (ACHN renal): > 50000 nM | GI50 (BT-549 breast): 606 nM | TGI (BT-549 breast): 4250 nM | GI50 (CAKI-1 renal): 284 nM | TGI (CAKI-1 renal): > 26700 nM | GI50 (CCRF-CEM leukemia): 205 nM | TGI (CCRF-CEM leukemia): > 35300 nM | GI50 (COLO 205 colon): 169 nM | TGI (COLO 205 colon): 751 nM | GI50 (DU-145 prostate): 218 nM | TGI (DU-145 prostate): > 50000 nM | GI50 (EKVX NSCLC): 384 nM | TGI (EKVX NSCLC): > 50000 nM | GI50 (HCC-2998 colon): 350 nM | TGI (HCC-2998 colon): 2920 nM | GI50 (HCT-116 colon): 188 nM | GI50 (HCT-15 colon): 185 nM | TGI (HCT-15 colon): > 50000 nM | GI50 (HL-60(TB) leukemia): 140 nM | TGI (HL-60(TB) leukemia): 460 nM | GI50 (HOP-62 NSCLC): 288 nM | TGI (HOP-62 NSCLC): > 50000 nM | GI50 (HOP-92 NSCLC): 876 nM | TGI (HOP-92 NSCLC): 10600 nM | GI50 (HS 578T breast): 173 nM | TGI (HS 578T breast): > 50000 nM | GI50 (HT29 colon): 170 nM | TGI (HT29 colon): > 50000 nM | GI50 (IGROV1 ovarian): 251 nM | TGI (IGROV1 ovarian): > 50000 nM | GI50 (K-562 leukemia): 181 nM | TGI (K-562 leukemia): > 50000 nM | GI50 (KM12 colon): 214 nM | TGI (KM12 colon): 6820 nM | GI50 (LOX IMVI melanoma): 243 nM | TGI (LOX IMVI melanoma): 1250 nM | GI50 (M14 melanoma): 146 nM | TGI (M14 melanoma): > 50000 nM | GI50 (MALME-3M melanoma): 1250 nM | TGI (MALME-3M melanoma): > 50000 nM | GI50 (MCF7 breast): 196 nM | TGI (MCF7 breast): > 50000 nM | GI50 (MDA-MB-231 breast): 327 nM | TGI (MDA-MB-231 breast): > 50000 nM | GI50 (MDA-MB-435): 90.8 nM | TGI (MDA-MB-435): 258 nM | GI50 (MOLT-4 leukemia): 312 nM | TGI (MOLT-4 leukemia): > 50000 nM | GI50 (NCI-H226 lung): 372 nM | TGI (NCI-H226 lung): 4750 nM | GI50 (NCI-H23 lung): 206 nM | GI50 (NCI-H460 lung): 190 nM | TGI (NCI-H460 lung): 5040 nM | GI50 (NCI-H522 lung): 126 nM | GI50 (NCI/ADR-RES ovarian): 127 nM | TGI (NCI/ADR-RES ovarian): 381 nM | GI50 (OVCAR-3 ovarian): 160 nM | TGI (OVCAR-3 ovarian): 842 nM | GI50 (OVCAR-4 ovarian): 732 nM | TGI (OVCAR-4 ovarian): > 50000 nM | GI50 (OVCAR-5 ovarian): 350 nM | TGI (OVCAR-5 ovarian): > 50000 nM | GI50 (OVCAR-8 ovarian): 244 nM | TGI (OVCAR-8 ovarian): > 50000 nM | GI50 (PC-3 prostate): 209 nM | TGI (PC-3 prostate): > 50000 nM | GI50 (RPMI-8226 leukemia): 187 nM | TGI (RPMI-8226 leukemia): 1490 nM | GI50 (RXF 393 renal): 102 nM | TGI (RXF 393 renal): 324 nM | GI50 (SF-268 CNS): 680 nM | TGI (SF-268 CNS): > 50000 nM | GI50 (SF-295 CNS): 295 nM | TGI (SF-295 CNS): > 50000 nM | GI50 (SF-539 CNS): 122 nM | TGI (SF-539 CNS): 324 nM | GI50 (SK-MEL-2 melanoma): 389 nM | TGI (SK-MEL-2 melanoma): > 50000 nM | GI50 (SK-MEL-28 melanoma): 6100 nM | TGI (SK-MEL-28 melanoma): > 50000 nM | GI50 (SK-MEL-5 melanoma): 192 nM | TGI (SK-MEL-5 melanoma): 881 nM | GI50 (SK-OV-3 ovarian): 300 nM | TGI (SK-OV-3 ovarian): > 50000 nM | GI50 (SN12C renal): 362 nM | TGI (SN12C renal): > 50000 nM | GI50 (SNB-19 CNS): 262 nM | TGI (SNB-19 CNS): > 50000 nM | GI50 (SNB-75 CNS): 147 nM | GI50 (SR leukemia): 196 nM | TGI (SR leukemia): > 50000 nM | GI50 (SW-620 colon): 219 nM | TGI (SW-620 colon): > 50000 nM | GI50 (T-47D breast): 291 nM | TGI (T-47D breast): > 50000 nM | GI50 (TK-10 renal): 965 nM | TGI (TK-10 renal): > 50000 nM | GI50 (U251 CNS): 201 nM | TGI (U251 CNS): 4360 nM | GI50 (UACC-257 melanoma): 6000 nM | TGI (UACC-257 melanoma): > 50000 nM | GI50 (UACC-62 melanoma): 267 nM | TGI (UACC-62 melanoma): > 50000 nM | GI50 (UO-31 renal): 406 nM | TGI (UO-31 renal): > 25600 nM
